Laboratory results as given in PMC5786306, “An AKAP-Lbc-RhoA interaction inhibitor promotes the translocation of aquaporin-2 to the plasma membrane of renal collecting duct principal cells” (PLoS ONE, 2018).
Entries after “also recorded” stand apart in the source; their conditions may differ. Read-outs that look alike come from different tables or passages of the source.

Key:
[1] = tested on: AQP2 localization in MCD4 cells; test: Immunofluorescence microscopy of AQP2 in MCD4 cells; assay type: cell-based, mouse; settings: 30 μM
[2] = biological target: T1, interaction of AKAP-Lbc/DHPH and RhoA (Homo sapiens, UniProt P61586); test: Homogeneous time-resolved fluorescence (HTRF) assay; assay type: binding
T1 construct: His6-AKAP-Lbc/DHPH (aa 1972–2342 of human AKAP-Lbc; NP_006729.4); made in house
T1 sequence (P61586 whole entry, the tested form may be a part): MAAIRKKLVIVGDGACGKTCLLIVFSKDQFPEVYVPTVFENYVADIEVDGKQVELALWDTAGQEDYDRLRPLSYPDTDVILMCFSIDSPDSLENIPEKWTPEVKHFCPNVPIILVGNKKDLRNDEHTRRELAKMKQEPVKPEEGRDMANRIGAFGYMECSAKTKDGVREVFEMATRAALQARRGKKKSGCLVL
Text: Fig 2 The small molecule Scaff10-8 inhibits the interaction of the DH domain of AKAP-Lbc and RhoA. (A). Principle of homogenous time-resolved fluorescence (HTRF) assay. Recombinant His-AKAP-Lbc/DHPH and GST-RhoA were generated. The tags are recognized by specific antibodies coupled to fluorescent dyes. When the two proteins interact, donor and acceptor dyes of the antibodies are in close proximity, energy transfer occurs upon excitation at 320 nm and a FRET signal is detected (665 nm). If a compound disrupts the interaction of the DHPH domain and RhoA, the proximity of the fluorescent moieties remains insufficient for a FRET signal to occur. […] As expected, excess untagged Rho decreases the binding between GST-RhoA and His-AKAP-Lbc/DHPH in a dose-dependent manner (lower left panel). […] (C) The influence of Scaff10-8 on the interaction of RhoA with the recombinant DH domain of AKAP-Lbc in the absence of the PH domain was determined by Alpha screen. […] The IC50 value is indicated.
The assay was essentially carried out as described. Scaff10 derivatives were added to His6-AKAP-Lbc/DHPH protein (250 nM final concentration) in HTRF buffer (PBS; 4 mM MgCl2; 0.05% Tween 20) in 384 well plates (Proxiplate-384 Plus, white, #6008289; Perkin Elmer LAS, Rodgau, Germany). Concentrations of Scaff10 derivatives ranged between 1.56–200 μM (2% DMSO final concentration); HTRF buffer with 2% DMSO served as a control. GST-RhoA (30 nM final concentration) in HTRF buffer and anti-GST antibody coupled to terbium (donor) and anti-His6-tag antibody coupled to XL665 (acceptor) were added to all wells (final antibody concentration: 2 μg/ml). After 1 h incubation at room temperature in the dark, FRET signals were recorded at 620 and 665 nm using a Genios Pro plate reader (Tecan Austria GmbH, Grödig, AT) and the ratios of […] to 620 nm were calculated. Wells containing no compound were set to 100% interaction of AKAP-Lbc/DHPH with RhoA, wells containing GST-RhoA only (without His6-AKAP-Lbc/DHPH) were set to 0% interaction. To exclude any interference of the tags and/or antibodies with Scaff10 derivatives, a His6-GST fusion protein replaced the two tagged proteins in a control assay. Wells containing His6-GST fusion protein were set to 100% interaction of His6-GST, wells containing no fusion protein were set to 0% interaction.

Nephelometric solubility = assay type: physicochemical; settings: DMEM + 10 % FCS, plasma or biological fluid, kinetic from dmso stock, maximal solubility in DMEM + 10 % FCS
Protocol: Solubility of Scaff10 derivatives was assessed nephelometrically. Scaff10 derivatives are moderately to poorly soluble in aqueous solutions due to their large number of aromatic rings having lipophilic character. Details about NMR, LC/MS and HPLC characterization steps are given in the Supplemental Information.
Suppl. Tab. 3: Overview of all 55 Scaff10 derivatives.Structures labeld with 1 were commercially obtained. MW = molecular weight. logP = calculated partition coefficient (using […]
Solubility was assessed nephelometrically in DMEM + 10 % FCS + Scaff10 derivative with either 0.3 or 2 % DMSO
final concentration; values in µM indicate maximal solubility of the compound under the respective condition. Yield in % indicates total yield of the last step of chemical synthesis
for each of Scaff10 derivatives. n.d. = not determined. n.i. = not indicated.
Scaff10 MW Number of exp. 2 % DMSO 0.3 % DMSO Scaff10 Yield
Structure log P Disruption of the PPI IC50 [µM]
derivative [g/mol] in dupl. [µM] [µM] class [%]

[3] = biological target: T2, interaction of the DH domain of AKAP-Lbc and RhoA (Homo sapiens, UniProt P61586); test: Alpha screen assay; assay type: binding
T2 construct: The proteins used were N-terminally His6-tagged AKAP-Lbc-DH domain
T2 sequence (P61586 whole entry, the tested form may be a part): as above
Protocol: Assays were performed according to the manufacturer’s protocol (PerkinElmer) with minor modifications. All reagents were diluted in buffer containing 25 mM Hepes, pH 7.4, 100 mM NaCl, 0.1% bovine serum albumin, 0.05% CHAPS and 50 μM GDP and allowed to equilibrate to room temperature before addition to plates. […] The proteins used were N-terminally His6-tagged AKAP-Lbc-DH domain and C-terminally biotinylated RhoA. […] 8 μL of assay buffer containing donor and acceptor beads at 1:400 dilution was then added, the plate was incubated in the dark for 60 min and then read on a PheraStar FS plate reader (BMG Labtech, Germany) using an AlphaScreen^TM 680 excitation/570 emission filter set.
11.6 μL of a solution containing 100 nM RhoA and 200 nM AKAP13 in assay buffer was added and incubated with the compounds for 30 min at RT in foil-sealed plates. 8 μL of assay buffer containing donor and acceptor beads at 1:400 dilution was added. The plate was incubated in the dark for 60 min and then read on a PheraStar FS plate reader.

[4] = 0.3 % DMSO final, read-out: Solubility 0.3 % DMSO
[5] = 2 % DMSO final, read-out: Solubility 2 % DMSO

Question: With `CCOC(=O)CCc1c(C)c2ccc(OCC(=O)c3ccc(OC)cc3)cc2oc1=O` [Scaff10-7, Ethyl 3-[7-[2-(4-methoxyphenyl)-2-oxo-ethoxy]-4-methyl-2-oxo-chromen-3-yl]propanoate] as the molecule, how does the “localization of AQP2 in MCD4 cells” value [1] read?
Answer: did not affect the location of AQP2

Question: And the “inhibitory effect on the AKAP-Lbc/DHPH-RhoA interaction” value ([2]; HTRF; result in words)?
Answer: did not interfere; also recorded: without inhibitory effects

Question: And the IC50 ([2]; Table 1; HTRF; '-' = no IC50, inactive (n.d. is used separately in S3 Table); read-out: IC50 ± SEM)?
Answer: > 200 µM

Question: What about the solubility (Nephelometric solubility; [4]) of the same molecule?
Answer: 40 µM

Question: And the solubility (Nephelometric solubility; [5])?
Answer: 70 µM

Question: What about the “inhibitory effect in Alpha screen” value ([3]; result in words) of the same molecule?
Answer: without inhibitory effects

Question: Which results are given for `COc1ccc(-c2coc3cc4oc(=O)c(C)c(C)c4cc23)cc1` [Scaff10, 3-(4-Methoxyphenyl)-5,6-dimethyl-furo[3,2-g]chromen-7-one]?
Answer: inhibitory effect on the AKAP-Lbc/DHPH-RhoA interaction ([2]; HTRF; result in words): no inhibitory effect; IC50 ([2]; read-out: IC50 ± SEM; Table 1; HTRF; '-' = no IC50, inactive (n.d. is used separately in S3 Table)): > 200 µM; solubility (Nephelometric solubility; [4]): 75 µM; solubility (Nephelometric solubility; [5]): 85 µM

Question: What does the source list for `COc1ccc(-c2coc3cc4oc(=O)c(CCC(=O)O)c(C)c4cc23)cc1` [Scaff10-8, 3-[3-(4-Methoxyphenyl)-5-methyl-7-oxo-furo[3,2-g]chromen-6-yl] propanoic acid]?
Answer: localization of AQP2 in MCD4 cells [1]: induced cAMP-independently the translocation of AQP2 to the plasma membrane; IC50 ([2]; IC50 ± SEM, Table 1; HTRF; '-' = no IC50, inactive (n.d. is used separately in S3 Table)): 34.1 ± 1.7 µM; solubility (Nephelometric solubility; [4]): 30 µM; solubility (Nephelometric solubility; [5]): 50 µM; IC50 [3]: 42 µM
